Data as given in US20250313563A1, “GLYCOGEN SYNTHASE KINASE 3 INHIBITORS AND USES THEREOF” (The Broad Institute, Inc., priority 2022, published 2025).
pIC50: −log10 of the molar value. Read-outs that look alike come from different tables or passages of the source.

How the values were obtained:
[1] = biological target: GSK3α (GST-full length GSK3α) (Homo sapiens (Human), UniProt P49840); assay: GSK3α TR-FRET kinase assay; format: biochemical
Procedure, shortened: (§1)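 Full-length GST-tagged human enzyme (1 nM) is exposed to test compound for 30 min before substrates are added. Phosphorylation of a primed biotinylated glycogen synthase peptide proceeds 100 min at room temperature at low ATP (4 μM α; 2 μM β) or high ATP (1 mM). Product is quantified by TR-FRET.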

[2] = biological target: GSK3b (GST-full length GSK3b) (Homo sapiens (Human), UniProt P49841); assay: GSK3b TR-FRET kinase assay; format: biochemical
Sequence of GSK3b (GST-full length GSK3b) (P49841 whole entry): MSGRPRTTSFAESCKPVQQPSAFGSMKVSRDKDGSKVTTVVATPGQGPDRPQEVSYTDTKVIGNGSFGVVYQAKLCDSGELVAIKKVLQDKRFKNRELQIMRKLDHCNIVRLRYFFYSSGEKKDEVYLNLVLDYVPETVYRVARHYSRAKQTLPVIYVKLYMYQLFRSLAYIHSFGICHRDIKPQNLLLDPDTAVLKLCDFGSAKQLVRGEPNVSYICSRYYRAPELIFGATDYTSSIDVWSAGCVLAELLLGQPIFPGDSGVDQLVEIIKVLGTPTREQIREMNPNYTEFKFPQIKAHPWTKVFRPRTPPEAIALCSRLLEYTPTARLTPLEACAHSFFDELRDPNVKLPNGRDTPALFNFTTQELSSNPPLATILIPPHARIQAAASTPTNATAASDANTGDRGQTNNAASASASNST
Procedure, shortened: as §1

[3] = 1 nM GSK3α, 4 μM ATP, 30 minute preincubation, Table 16, read-out: GSK3-A TR-FRET BIOCHEMICAL (TR-FRET), IC50
[4] = 1 nM GSK3b, 2 μM ATP, 30 minute preincubation, Table 16, read-out: GSK3-B TR-FRET BIOCHEMICAL (TR-FRET), IC50
[5] = read-out: GSK3-A (TR-FRET 1 mM ATP), GMean, IC50, 1 mM ATP, geometric mean
[6] = read-out: GSK3-B (TR-FRET 1 mM ATP), GMean, IC50, 1 mM ATP, geometric mean
[7] = 1 nM GSK3α, 4 μM ATP, 30 minute preincubation, read-out: GSK3-A TR-FRET BIOCHEMICAL (TR-FRET), IC50
[8] = GSK3-A (TR-FRET 1 mM ATP), GMean, IC50, 1 mM ATP, geometric mean
[9] = 1 nM GSK3b, 2 μM ATP, 30 minute preincubation, read-out: GSK3-B TR-FRET BIOCHEMICAL (TR-FRET), IC50
[10] = GSK3-B (TR-FRET 1 mM ATP), GMean, IC50, 1 mM ATP, geometric mean
[11] = 1 nM GSK3α, 4 μM ATP, 30 minute preincubation, Table 16, read-out: GSK3-A TR-FRET BIOCHEMICAL (TR-FRET)
[12] = 1 nM GSK3b, 2 μM ATP, 30 minute preincubation, Table 16, read-out: GSK3-B TR-FRET BIOCHEMICAL (TR-FRET)

Sequence of GSK3α (GST-full length GSK3α) (P49840 whole entry): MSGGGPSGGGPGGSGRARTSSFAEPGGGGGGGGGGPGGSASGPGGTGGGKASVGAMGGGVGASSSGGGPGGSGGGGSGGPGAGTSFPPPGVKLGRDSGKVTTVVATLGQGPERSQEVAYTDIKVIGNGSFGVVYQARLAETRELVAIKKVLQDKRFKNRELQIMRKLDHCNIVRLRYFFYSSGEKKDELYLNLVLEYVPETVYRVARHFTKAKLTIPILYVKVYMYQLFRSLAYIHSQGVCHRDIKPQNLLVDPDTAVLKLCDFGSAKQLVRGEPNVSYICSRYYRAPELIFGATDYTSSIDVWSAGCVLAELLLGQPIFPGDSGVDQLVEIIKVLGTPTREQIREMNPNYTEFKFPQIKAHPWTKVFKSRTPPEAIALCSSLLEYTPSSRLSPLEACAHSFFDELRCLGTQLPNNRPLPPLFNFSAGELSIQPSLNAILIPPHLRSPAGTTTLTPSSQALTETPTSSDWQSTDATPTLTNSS

| SMILES | pIC50 [1, 3] | pIC50 [2, 4] | pIC50 [1, 11] | pIC50 [2, 12] | also measured |
| --- | --- | --- | --- | --- | --- |
| CC[C@]1(c2cccc(-c3cnn4cccnc34)c2)C2=C(CC(C)(C)NC2=O)Nc2n[nH]cc21 [Compound 950830] | ≥ 7.00 | 6.00 to 7.00 |  |  |  |
| CC[C@@]1(c2cccc(C(F)(F)F)c2)C2=C(CCC2=O)Nc2n[nH]cc21 [Compound 951565] | ≥ 7.00 | 6.00 to 7.00 |  |  |  |
| CC[C@]1(c2cccc(N(C)c3ncccn3)c2)C2=C(CC(C)(C)NC2=O)Nc2n[nH]c(Cl)c21 [Compound 951592] | < 5.30 | < 5.30 |  |  |  |
| CCC1(c2cccc(C(F)(F)F)c2)C2=C(CCN(c3ncn(C)c3C)C2=O)Nc2n[nH]cc21 (centres unmarked) [Compound 951598] | 6.00 to 7.00 | < 5.30 |  |  |  |
| CCC1(c2cccc(-c3ccncc3F)c2)C2=C(CC(C)(C)NC2=O)Nc2n[nH]c(C(F)F)c21 (centres unmarked) [Compound 951599] | 6.00 to 7.00 | 6.00 to 7.00 |  |  |  |
| CCC1(c2cccc(Oc3ncccn3)c2)C2=C(CC(C)(C)CC2=O)Nc2n[nH]c(C(F)(F)F)c21 (centres unmarked) [Compound 951604] | ≥ 7.00 | 6.00 to 7.00 |  |  |  |
| CC[C@@]1(c2cccc(Oc3ncccn3)c2)C2=C(CC(C)(C)NC2=O)Nc2n[nH]c(Cl)c21 [Compound 951605] | 5.30 to 6.00 | < 5.30 |  |  |  |
| CC[C@]1(c2cccc(Oc3ncccn3)c2)C2=C(CC(C)(C)NC2=O)Nc2n[nH]c(C(F)(F)F)c21 [Compound 951607] | ≥ 7.00 | ≥ 7.00 |  |  | pIC50 [1, 5]: ≥ 7.00; pIC50 [2, 6]: 6.00 to 7.00 |
| CC[C@]1(c2cccc(-c3ccncc3F)c2)C2=C(CC(C)(C)NC2=O)Nc2n[nH]c(C(F)F)c21 [Compound 951612] | ≥ 7.00 | ≥ 7.00 |  |  | pIC50 [1, 5]: 6.00 to 7.00; pIC50 [2, 6]: 5.30 to 6.00 |
| CC[C@@]1(c2cccc(N(C)c3ncccn3)c2)C2=C(CC(C)(C)NC2=O)Nc2n[nH]c(Cl)c21 [Compound 951618] | 6.00 to 7.00 | 5.30 to 6.00 |  |  |  |
| CC(C)S(=O)(=O)N1CCC2(CC1)C1=C(Nc3n[nH]cc32)[C@H](F)C(C)(C)CC1=O [Compound 951701] |  |  |  |  | pIC50 [1, 7]: ≥ 7.00; pIC50 [1, 8]: 6.00 to 7.00; pIC50 [2, 9]: ≥ 7.00; pIC50 [2, 10]: 5.30 to 6.00 |
| CCC1(c2cccc(-c3cn(C)nc3C)c2)C2=C(CC(C)(C)C2=O)Nc2n[nH]cc21 (centres unmarked) [Compound 951702] | ≥ 7.00 | 6.00 to 7.00 |  |  | pIC50 [1, 5]: 6.00 to 7.00; pIC50 [2, 6]: < 5.30 |
| CC1(C)CC(=O)C2=C(Nc3n[nH]cc3C23CCN(S(=O)(=O)c2cccc(C(F)(F)F)c2)CC3)[C@@H]1F [Compound 951703] |  |  | ≥ 7.00 | ≥ 7.00 | pIC50 [1, 8]: 6.00 to 7.00; pIC50 [2, 10]: 5.30 to 6.00 |
| CC1(C)CC(=O)C2=C(Nc3n[nH]cc3C23CCCCC3)[C@@H]1F [Compound 951705] |  |  | ≥ 7.00 | ≥ 7.00 |  |
| CC[C@]1(c2cccc(-c3cn(C)nc3C3CC3)c2)C2=C(CC(C)(C)NC2=O)Nc2n[nH]cc21 [Compound 951706] | ≥ 7.00 | ≥ 7.00 |  |  |  |
| CC[C@]1(c2cccc(-c3cnn(C4CCCCC4)c3)c2)C2=C(CC(C)(C)NC2=O)Nc2n[nH]cc21 [Compound 951707] | 6.00 to 7.00 | 5.30 to 6.00 |  |  |  |
| Cn1ccc(S(=O)(=O)N2CCC3(CC2)C2=C(Nc4n[nH]cc43)[C@@H](F)C(C)(C)CC2=O)n1 [Compound 951708] |  |  | ≥ 7.00 | 6.00 to 7.00 |  |
| Cn1ccc(S(=O)(=O)N2CCC3(CC2)C2=C(Nc4n[nH]cc43)[C@H](F)C(C)(C)CC2=O)n1 [Compound 951709] |  |  | ≥ 7.00 | 6.00 to 7.00 |  |
| CC[C@@]1(c2cccc(-c3cn(C)nc3C)c2)C2=C(CC(C)(C)C2=O)Nc2n[nH]cc21 [Compound 951710] | < 5.30 | < 5.30 |  |  |  |
| CC1(C)CC(=O)C2=C(Nc3n[nH]cc3C23CCCCC3)[C@H]1F [Compound 951711] |  |  | ≥ 7.00 | ≥ 7.00 |  |
| CC1(C)CC(=O)C2=C(Nc3n[nH]cc3C23CCN(S(=O)(=O)c2cccc(C(F)(F)F)c2)CC3)[C@H]1F [Compound 951713] |  |  | ≥ 7.00 | ≥ 7.00 | pIC50 [1, 8]: 6.00 to 7.00; pIC50 [2, 10]: 5.30 to 6.00 |
| CC(C)S(=O)(=O)N1CCC2(CC1)C1=C(Nc3n[nH]cc32)[C@@H](F)C(C)(C)CC1=O [Compound 951714] |  |  |  |  | pIC50 [1, 7]: ≥ 7.00; pIC50 [1, 8]: 6.00 to 7.00; pIC50 [2, 9]: ≥ 7.00; pIC50 [2, 10]: 6.00 to 7.00 |
| CC1(C)CC(=O)C2=C(C1)Nc1n[nH]cc1[C@]21CCN(S(=O)(=O)CC2CC2)C1 [Compound 951723] |  |  |  |  | pIC50 [1, 7]: ≥ 7.00; pIC50 [1, 8]: ≥ 7.00; pIC50 [2, 9]: ≥ 7.00; pIC50 [2, 10]: 6.00 to 7.00 |
| CC1(C)CC(=O)C2=C(C1)Nc1n[nH]cc1[C@@]21CCN(S(=O)(=O)CC2CC2)C1 [Compound 951724] |  |  | ≥ 7.00 | ≥ 7.00 |  |
| Cn1cc(S(=O)(=O)N2CC[C@]3(C2)C2=C(CC(C)(C)CC2=O)Nc2n[nH]cc23)cn1 [Compound 951725] |  |  | ≥ 7.00 | ≥ 7.00 | pIC50 [1, 8]: 6.00 to 7.00; pIC50 [2, 10]: 5.30 to 6.00 |
| CC1(C)CC(=O)C2=C(C1)Nc1n[nH]cc1[C@]21CCN(S(=O)(=O)c2ccccc2)C1 [Compound 951787] |  |  |  |  | pIC50 [1, 7]: ≥ 7.00; pIC50 [1, 8]: ≥ 7.00; pIC50 [2, 9]: ≥ 7.00; pIC50 [2, 10]: 6.00 to 7.00 |
| COc1cccc(S(=O)(=O)N2CC[C@]3(C2)C2=C(CC(C)(C)CC2=O)Nc2n[nH]cc23)c1 [Compound 951789] |  |  |  |  | pIC50 [1, 7]: ≥ 7.00; pIC50 [1, 8]: 6.00 to 7.00; pIC50 [2, 9]: ≥ 7.00; pIC50 [2, 10]: 6.00 to 7.00 |

Continued, in another order:

| pIC50 [1, 3] | pIC50 [2, 4] | pIC50 [1, 11] | pIC50 [2, 12] | SMILES | also measured |
| --- | --- | --- | --- | --- | --- |
|  |  | ≥ 7.00 | ≥ 7.00 | Cn1cc(S(=O)(=O)N2CC[C@@]3(C2)C2=C(CC(C)(C)CC2=O)Nc2n[nH]cc23)cn1 [Compound 951726] | pIC50 [1, 8]: 5.30 to 6.00; pIC50 [2, 10]: 5.30 to 6.00 |
| ≥ 7.00 | 6.00 to 7.00 |  |  | CC[C@]1(c2cccc(N(C)c3ncccn3)c2)C2=C(CC(C)(C)NC2=O)Nc2n[nH]c(C(F)F)c21 [Compound 951736] |  |
|  |  | ≥ 7.00 | ≥ 7.00 | CC1(C)CC(=O)C2=C(C1)Nc1n[nH]cc1[C@@]21CCN(S(=O)(=O)c2ccccc2)C1 [Compound 951788] | pIC50 [1, 8]: 6.00 to 7.00; pIC50 [2, 10]: 5.30 to 6.00 |
|  |  | ≥ 7.00 | ≥ 7.00 | COc1cccc(S(=O)(=O)N2CC[C@@]3(C2)C2=C(CC(C)(C)CC2=O)Nc2n[nH]cc23)c1 [Compound 951790] |  |
| 6.00 to 7.00 | 5.30 to 6.00 |  |  | CCC1(c2cccc(-c3cnn(CC4CCOC4)c3)c2)C2=C(CC(C)(C)NC2=O)Nc2n[nH]cc21 (centres unmarked) [Compound 951836] |  |
| 6.00 to 7.00 | 6.00 to 7.00 |  |  | CC[C@]1(c2cccc(-c3cnn(-c4ccccc4)c3C(F)(F)F)c2)C2=C(CC(C)(C)NC2=O)Nc2n[nH]cc21 [Compound 951837] |  |
| 6.00 to 7.00 | 5.30 to 6.00 |  |  | CC[C@]1(c2cccc(-c3cnn(Cc4ccc(OC)cc4)c3)c2)C2=C(CC(C)(C)NC2=O)Nc2n[nH]cc21 [Compound 951838] |  |
|  |  | ≥ 7.00 | 6.00 to 7.00 | CC1(C)CC(=O)C2=C(Nc3n[nH]cc3C23CCN(S(=O)(=O)c2ccccc2C(F)F)CC3)[C@H]1F [Compound 951839] |  |
| 6.00 to 7.00 | 5.30 to 6.00 |  |  | CCC1(c2cccc(-c3cc(C(C)C)nn3C)c2)C2=C(CC(C)(C)NC2=O)Nc2n[nH]cc21 (centres unmarked) [Compound 951842] |  |
| 6.00 to 7.00 | < 5.30 |  |  | CC[C@]1(c2cccc(-c3cc(C(C)(C)C)nn3C)c2)C2=C(CC(C)(C)NC2=O)Nc2n[nH]cc21 [Compound 951843] |  |
| ≥ 7.00 | 6.00 to 7.00 |  |  | CC[C@]1(c2cccc(-c3c(C#N)c(C)nn3C)c2)C2=C(CC(C)(C)NC2=O)Nc2n[nH]cc21 [Compound 951844] |  |
| 6.00 to 7.00 | 6.00 to 7.00 |  |  | CC[C@@]1(c2cccc(-c3cc(C)nn3-c3ccccc3)c2)C2=C(CC(C)(C)NC2=O)Nc2n[nH]cc21 [Compound 951845] |  |
